Earlier results, collected in US8288412B2, “Compounds which have activity at M1 receptor and their uses in medicine” (Glaxo Group Limited, priority 2005, dated 2012).

How the values were obtained:
[1] = rats
[2] = mice
[3] = unilateral 6-OH-DA lesioned rats
[4] = monkeys

Structure (SMILES): CCCCCCOc1nsnc1C1=CCCN(C)C1 [xanomeline]
- amphetamine induced locomotion [1]: reverses
- psychotic symptoms such as suspiciousness, hallucinations and delusions (Alzheimer's patients): reduce psychotic symptoms
- side effects (patients): dose-limiting peripheral cholinergic side effects
- apomorphine induced climbing [2]: reverses
- dopamine agonist driven turning [3]: reverses
- amphetamine-induced motor unrest [4]: reverses
